Like-named read-outs stand apart in the source and are kept apart here. Ends that are not written are not given here.
Columns and labels:
[1] = test system: Pseudomonas aeruginosa PAO1; conditions: for MIC: Table 2, Pseudomonas aeruginosa PAO1
[2] = test system: Pseudomonas aeruginosa PAO1
[3] = test system: Staphylococcus aureus ATCC 6538P; conditions: for MBC/MIC: Table 2, Staphylococcus aureus ATCC 6538P; for MBC: ATCC 6538
[4] = test system: Salmonella typhimurium ATCC 14028; assay: MIC, broth microdilution; assay type: cell-based; conditions: Table 1; for MIC S. typ.: broth microdilution, Nutrient Broth 0.5×, overnight 37 °C, minimum of three independent experiments
Description: MIC values were determined on Gram-positive and Gram-negative bacteria by the broth microdilution method for antimicrobial peptides previously described [33, 89] with minor modifications.
Bacterial strains were grown in Luria-Bertani (LB) medium overnight at 37 °C and then diluted in Nutrient Broth at a final concentration of ~5 × 10^5 CFU/mL per well. Twofold serial dilutions of peptides were carried out in the test wells to obtain concentrations ranging from 50 μM to 0.05 μM. Plates were incubated overnight at 37 °C.
MIC value was defined as the lowest concentration at which growth was inhibited. Three independent experiments were performed for each MIC value.

[5] = test system: Escherichia coli ATCC 25922
[6] = test system: Klebsiella pneumonia ATCC 700603; conditions: for MIC K. pne.: ATCC 700603
[7] = test system: Acinetobacter baumanii ATCC 17878
[8] = test system: Salmonella enteriditis 706 RIVM
[9] = test system: Pseudomonas aeruginosa PA14
[10] = test system: Pseudomonas aeruginosa RP73 (clinical isolate)
[11] = test system: Staphylococcus aureus ATCC 6538P; conditions: ATCC 6538
[12] = test system: Enterococcus faecalis ATCC 29212
[13] = assay type: physicochemical
Excerpt: The six peptides were produced in the recombinant form by using a previously described strategy that exploit the frog protein onconase (ONC) as a carrier to drive the peptide to inclusion bodies. The fusion proteins were expressed in Escherichia coli strain BL21DE3, using the pET22b(+) vector and named: ONC-DCless-H6-(P)FIBα-GVV27, ONC-DCless-H6-(P)FIBα-SFR22, ONC-DCless-H6-(P)FIBβ-GVV28, ONC-DCless-H6-(P)FIBβ-NWK23, ONC-DCless-H6-(P)FIBγ-GII30, ONC-DCless-H6-(P)FIBγ-TWK25 (nucleotide and amino acid sequences are reported in Supplementary Figure S1). […] Peptides were released by hydrolysis of an acidic labile “Asp-Pro” sequence leading to recombinant peptides endowed with an additional Pro residue at the N-terminus. Thus, the recombinant forms of these peptides are herein named (P)FIBα-GVV27, (P)FIBα-SFR22, (P)FIBβ-GVV28, (P)FIBβ-NWK23, (P)FIBγ-GII30, (P)FIBγ-TWK25. Hydrolysis efficiencies of 95% were estimated for all the recombinant proteins (Supplementary Figure S3). To purify the recombinant peptides from the hydrolysis mixtures, the carrier and the uncleaved fusion protein were selectively precipitated by increasing the pH to 7 exploiting the fact that ONC is insoluble at pH higher than 5, whereas most AMPs are soluble also at neutral pH. […] Therefore, purification of (P)FIBα-SFR22, (P)FIBα-GVV27, (P)FIBβ-NWK23 and (P)FIBγ-TWK25 was first performed by selective precipitation, to remove the carrier and the uncleaved fusion protein, followed by Reverse Phase High-Performance Liquid Chromatography (RP-HPLC) on a C18 column, whereas purification of (P)FIBβ-GVV28 and (P)FIBγ-GII30 was performed directly by RP-HPLC omitting the selective precipitation step. Final yields of all recombinant peptides ranged from approximately 6 to 12 mg per liter of LB culture. Peptide purity, as determined by RP-HPLC, typically varied between 95% and 99% (Supplementary Figure S4).
Peptides (P)FIBα-GVV27, (P)FIBα-SFR22, (P)FIBβ-NWK23 and (P)FIBγ-TWK25 were separated from the carrier and the uncleaved fusion proteins as previously described. The hydrolysis mixture was neutralized to pH 7–7.2 by adding 1 M NH3 and incubated for 1 h at 25 °C under nitrogen atmosphere in a water bath. […] Supernatant and insoluble fraction were analyzed by SDS-PAGE. Concentration of the peptide into the soluble fraction was determined by spectrophotometric analyses using extinction coefficients (Supplementary Table S1) calculated by the ProtParam tool. After the selective precipitation step, purification of the peptide was performed by RP-HPLC. The linear gradients used are listed in Supplementary Table S2. Purification of (P)FIBβ-GVV28 and (P)FIBγ-GII30 was performed directly by RP-HPLC, omitting the selective precipitation step. Purified peptides were lyophilized and dissolved in deionized water. Samples were stored at −80 °C under nitrogen atmosphere. Purity of peptides was evaluated by RP-HPLC on Europa Protein 300 C18 column (5 μm, 25 × 1) using the linear gradients listed in Supplementary Table S2. The identity of the peptides was confirmed by mass spectrometry.

HCoV-229E = conditions: Vero cells; for antiviral activity against HCoV-229E: co-treatment assay, from 50 μM peptide
[14] = test system: P. aeruginosa PAO1 biofilm; assay: Antibiofilm attachment assay, confocal microscopy; conditions: peptide 20 µM added with bacteria, stained after 4 h, Live/Dead BacLight, three independent experiments, t-test vs control
[15] = test system: P. aeruginosa PAO1 biofilm; assay: Antibiofilm detachment assay, confocal microscopy; conditions: peptide 20 µM on 24 h pre-formed biofilm, further 24 h, Live/Dead BacLight, three independent experiments
[16] = Table 2, Pseudomonas aeruginosa PAO1
[17] = Table 1, broth microdilution, Nutrient Broth 0.5×, overnight 37 °C, minimum of three independent experiments
[18] = Table 1, broth microdilution, Nutrient Broth 0.5×, ~5 × 10^5 CFU/mL, overnight 37 °C, minimum of three independent experiments
[19] = Table 1, control antibiotic, twofold dilutions from 64 µg/mL

| Compound | MBC/MIC [2, 16] | MBC/MIC [3] | MIC S. typ. [4] [µM] | MIC E. coli ([5]; ATCC 25922) [µM] | MIC K. pne. [6] [µM] | MIC PAO1 [1] [µM] | MIC PA14 ([9]; PA14) [µM] | MIC RP73 ([10]; RP73 (clinical isolate)) [µM] | MIC S. aur. [11] [µM] | MIC E. fae. ([12]; ATCC 29212) [µM] | MIC A. bau. [7, 17] [µM] | MIC S. ent. [8] [µM] | MIC PA14 [9, 17] [µM] | MIC E. fae. [12, 17] [µM] | other results |
| --- | --- | --- | --- | --- | --- | --- | --- | --- | --- | --- | --- | --- | --- | --- | --- |
| CC[C@H](C)[C@H](NC(=O)[C@H](CCCCN)NC(=O)[C@H](CCC(=O)O)NC(=O)[C@H](CCCCN)NC(=O)[C@H](CO)NC(=O)[C@H](CCCCN)NC(=O)[C@H](CCCNC(=N)N)NC(=O)[C@H](Cc1ccccc1)NC(=O)[C@H](Cc1ccccc1)NC(=O)[C@H](CC(=O)O)NC(=O)CNC(=O)[C@H](CC(C)C)NC(=O)[C@@H](N)CC(C)C)C(=O)NCC(=O)N[C@@H](CCCCN)C(=O)N[C@@H](CCC(=O)O)C(=O)N[C@@H](Cc1ccccc1)C(=O)N[C@@H](CCCCN)C(=O)N[C@@H](CCCNC(=N)N)C(=O)N[C@H](C(=O)N[C@H](C(=O)N[C@@H](CCC(N)=O)C(=O)N[C@@H](CCCNC(=N)N)C(=O)N[C@H](C(=O)N[C@@H](CCCCN)C(=O)N[C@@H](CC(=O)O)C(=O)N[C@@H](Cc1ccccc1)C(=O)N[C@@H](CC(C)C)C(=O)N[C@@H](CCCNC(=N)N)C(=O)N[C@@H](CC(N)=O)C(=O)N[C@@H](CC(C)C)C(=O)N[C@H](C(=O)N1CCC[C@H]1C(=O)N[C@@H](CCCNC(=N)N)C(=O)N[C@H](C(=O)N[C@@H](CCC(=O)O)C(=O)N[C@@H](CO)C(=O)O)[C@@H](C)O)C(C)C)[C@@H](C)CC)C(C)C)[C@@H](C)CC [LL37, reference compound] | – | – | – | – | – | – | – | – | – | – | – | – | – | – | MIC ([1]; minimum of three independent experiments): 1.56 µM; MBC ([2]; Table 2, Pseudomonas aeruginosa PAO1, […], subculture on LB agar): 1.56 µM |
| NC[C@H]1O[C@H](O[C@H]2[C@H](O)[C@@H](O[C@H]3O[C@H](CO)[C@@H](O)[C@H](N)[C@H]3O)[C@H](N)C[C@@H]2N)[C@H](N)C[C@@H]1O [Tobramycin] | 2 | 2 | – | – | – | – | – | – | – | – | – | – | – | – | – |
| Colistin [reference compound] | 1 | – | – | – | – | – | – | – | – | – | – | – | – | – | MIC ([1]; antibiotics): 0.5 mg/L; MBC ([2]; Table 2, Pseudomonas aeruginosa PAO1, antibiotics): 0.5 mg/L |
| GVVWMNWKGSWYSMRKMSMKIRPFFPQQ [FIBβ-GVV28] | – | – | 12.5 | 6.25 | 25 | 6.25 | 6.25 | 6.25 | 3.12 | 6.25 | – | – | – | – | MIC A. bau. ([7]; ATCC 17878): 6.25 µM; MIC S. ent. [8, 17]: 12.5 µM |
| GVVWVSFRGADYSLRAVRMKIRPLVTQ [FIBα-GVV27] | – | – | 6.25 | 12.5 | 25 | 6.25 | – | 3.12 | 6.25 | – | 6.25 | 12.5 | 6.25 | 6.25 | – |
| H-PGIIWATWKTRWYSMKKTTMKIIPFNRLTIG [(P)FIBγ-GII30] | 1 | 1 | 6.25 | 12.5 | 25 | 12.5 | – | 3.12 | 6.25 | – | 6.25 | 12.5 | 6.25 | 6.25 | solubility / aggregation at pH 7 [13]: particularly prone to aggregation and precipitation; MBC ([2]; PAO1): 12.5 µM; MBC [3]: 6.25 µM; antiviral activity against HCoV-229E (HCoV-229E): strong antiviral activity; IC50 (HCoV-229E; read-out: IC50 against HCoV-229E, virus pre-treatment assay (virus incubated with peptide at 37 °C before infection)): 1.3 µM; fluorescence signal of SYTO 9 (live cells), attachment assay [14]: significantly reduced |
| H-PGVVWVSFRGADYSLRAVRMKIRPLVTQ [(P)FIBα-GVV27] | 1 | 1 | 6.25 | 12.5 | 50 | 6.25 | – | 3.12 | 6.25 | – | 6.25 | 12.5 | 6.25 | 6.25 | solubility / aggregation at pH 7 [13]: soluble at pH 7; MBC ([2]; PAO1): 6.25 µM; MBC [3]: 6.25 µM; antiviral activity against HCoV-229E (HCoV-229E): strong antiviral activity; fluorescence signal of SYTO 9 (live cells), attachment assay [14]: significantly reduced; SYTO 9 / PI signal, detachment assay [15]: reduction of the SYTO 9 signal coupled with an increase of the PI signal |
| H-PNWKGSWYSMRKMSMKIRPFFPQQ [(P)FIBβ-NWK23] | 1 | 1 | 6.25 | – | 25 | 6.25 | 3.12 | 3.12 | 3.12 | – | 6.25 | 12.5 | – | 6.25 | solubility / aggregation at pH 7 [13]: soluble at pH 7; MIC E. coli [5, 18]: 6.25 µM; MBC ([2]; PAO1): 6.25 µM; MBC [3]: 3.12 µM; antiviral activity against HCoV-229E (HCoV-229E): absence of efficacy; fluorescence signal of SYTO 9 (live cells), attachment assay [14]: lower, not significant reduction |
| NWKGSWYSMRKMSMKIRPFFPQQ [FIBβ-NWK23] | – | – | 12.5 | 6.25 | 25 | 6.25 | 3.12 | 6.25 | 3.12 | 6.25 | – | – | – | – | MIC A. bau. ([7]; ATCC 17878): 6.25 µM; MIC S. ent. [8, 17]: 12.5 µM |
| Polymyxin B [reference compound] | – | – | – | – | – | – | – | – | – | – | – | – | – | – | MIC S. typ. (antibiotics) ([4]; control antibiotic, twofold dilutions from 64 µg/mL): 0.12 mg/L; MIC E. coli (antibiotics) [5, 19]: 0.5 mg/L; MIC K. pne. (antibiotics) [6, 19]: 0.5 mg/L; MIC A. bau. (antibiotics) [7, 19]: 0.5 mg/L; MIC S. ent. (antibiotics) [8, 19]: 0.5 mg/L; MIC PAO1 (antibiotics) [1, 19]: 0.25 mg/L; MIC PA14 (antibiotics) [9, 19]: 0.25 mg/L; MIC RP73 (antibiotics) [10, 19]: 0.12 mg/L |
| SFRGADYSLRAVRMKIRPLVTQ [FIBα-SFR22] | – | – | 50 | 25 | >50 | 12.5 | 12.5 | 12.5 | 12.5 | 6.25 | – | 50 | – | – | MIC A. bau. ([7]; ATCC 17878): 25 µM |
| TWKTRWYSMKKTTMKIIPFNRLTIG [FIBγ-TWK25] | – | – | 3.12 | – | 6.25 | 3.12 | – | – | 1.56 | 6.25 | 3.12 | 6.25 | 3.12 | – | MIC E. coli [5, 18]: 3.12 µM; MIC RP73 [10, 17]: 3.12 µM |
